From US20260263433A1, “TETRAZOLIUM AND FORMAZAN COMPOUNDS AND METHODS OF MAKING AND USING THE SAME” (ARIZONA BOARD OF REGENTS ON BEHALF OF THE UNIVERSITY OF …, priority 2022, published 2026)

Experiments:
MRC-5 (Normal lung) = assay: Antiproliferative activity, resazurin readout, MRC-5 normal lung fibroblasts; assay type: cell-based, human; conditions: 72 h incubation, 0.032-100 μM, mean ± SDM, n = 3
Protocol: (§1) Once the stability data and the information on the reduction and iron binding of the new cohort of tetrazolium salts had been obtained, the antiproliferative activity of the new cohort was assessed in a panel of mammalian cell lines. Cancer cells require more iron than normal cells in order to sustain fast proliferation rate. Therefore, compounds that interfere with intracellular iron availability display antiproliferative activity.^12 Indeed iron chelation and prochelation strategies could provide new therapeutic avenues in anticancer drug discovery.^4
(§2) Cancer cell lines of different origin were selected (ovarian A2780, breast MDAMB-231, colon Caco-2, and lung A549), and a normal cell line (MRC-5, lung fibroblasts) was selected as a comparison.
(§3) Because the colorimetric MTT reagent is one of the compounds being tested in this panel, the reduction of resazurin to brightly fluorescent resorufin was chosen as a readout for the assessment of antiproliferative activity.

A2780 (Ovary) = assay: Antiproliferative activity, resazurin readout, A2780; assay type: cell-based, human; conditions: for IC50: 72 h incubation, 0.032-100 μM, mean ± SDM, n = 3
Protocol: as §1, §2, §3

[1] = Reduction of tetrazolium salts by cyclic voltammetry in buffered aqueous solution; assay type: physicochemical; conditions: 50 mM PBS pH 7.4, 25° C., K3[Fe(CN)6] reference, irreversible reduction
Protocol: The reduction of all the tetrazolium salts was investigated by cyclic voltammetry in buffered aqueous solutions (50 mM phosphate buffered saline solution, pH 7.4, K3[Fe(CN)6] as reference E0=0.430 V vs. NHE, 25° C.). Each compound presents an irreversible reduction at a potential that varies considerably depending on the identity of the aryl substituents on the tetrazolium core. Although the peaks are rather broad and likely susceptible to shifts depending on the specific experimental conditions, the peak potentials (Table 1, referenced to NHE) of some of these tetrazolium compounds indicate that they are reduced outside the biologically relevant window. […] On the other hand, the fact that the tetrazolium compounds are harder to reduce relative to MTT (with the exception of the benzothiazole derivative 1b) makes them well suited for intracellular activation in the reducing microenvironment of malignant cells. Compounds 2b, 4b, 6b and 7b are likely to be reduced intracellularly to the formazan species.

[2] = tested on: panel of mammalian cell lines; assay: Antiproliferative activity across the panel of cell lines; assay type: cell-based, human; conditions: 72 h, tested cell lines
Protocol: as §1, §2, §3

A549 (Lung) = assay: Antiproliferative activity, resazurin readout, A549; assay type: cell-based, human; conditions: 72 h incubation, 0.032-100 μM, mean ± SDM, n = 3
Protocol: as §1, §2, §3

Caco-2 (Colon) = assay: Antiproliferative activity, resazurin readout, Caco-2; assay type: cell-based, human; conditions: 72 h incubation, 0.032-100 μM, mean ± SDM, n = 3
Protocol: as §1, §2, §3

MDA-MB-231 (Breast) = assay: Antiproliferative activity, resazurin readout, MDA-MB-231; assay type: cell-based, human; conditions: 72 h incubation, 0.032-100 μM, mean ± SDM, n = 3
Protocol: as §1, §2, §3

[3] = Stability in fetal bovine serum monitored by HPLC; assay type: in vitro ADME; conditions: 24 h
Protocol: FIGS. 5A and 5B depict the assessment of stability of the tetrazolium-based prochelators in fetal bovine serum (FBS) for a period of 24 h.
The stability of exemplary tetrazolium compounds was tested in fetal bovine serum and monitored by HPLC analysis.

[4] = Fe(II) coordination in buffered aqueous solution (optical absorption changes); assay type: physicochemical; conditions: absorption 500-800 nm
Protocol: These two compounds were retained in the experiments as controls.
The tetrazolium salts (FIGS. 4A-4B) were synthesized from the formazans by the process outlined in FIG. 4C, which included oxidation with N-bromo-succinimide. For structures featuring a 2-hydroxyphenyl group, the oxidation was carried out on methoxyphenyl precursors and followed by a demethylation step in the presence of BBr3. The tetrazolium compounds were isolated as bromide salts.

[5] = tested on: A2780 ovarian cancer cells; assay: Effect of iron supplementation on toxicity, LIVE/DEAD stain, flow cytometry; assay type: cell-based, human; conditions: compounds 40 μM with or without ferric ammonium citrate 50 μM or holo-transferrin 50 μM, 48 h
Protocol: FIGS. 6A-6B depict the effects of iron supplementation on toxicity in A2780 ovarian cancer cells. The percentage of dead cells was determined using the LIVE/DEAD fixable stain as measured by flow cytometry. FIG. 6A depicts the quantification of dead cells after treating in the presence of test compounds (40 μM) with or without ferric ammonium citrate (FAC, 50 μM) for 48 h. FIG. 6B depicts the quantification of dead cells after treating in the presence of test compounds (40 μM) with or without holo-transferrin (holo-TF, 50 μM) for 48 h. Experiments were conducted in triplicate and the values shown are averages ±standard deviation. **p<0.01, ***p<0.001, ****p<0.0001.
The biological activity of the tetrazolium and formazan compounds was investigated in A2780 cells, in which they presented the highest antiproliferative activity. In particular, experiments were performed to confirm that the antiproliferative activity of these compounds is associated with the availability of intracellular iron.

[Br-].c1ccc(-c2nn(-c3nccc4ccccc34)[n+](-c3ccccc3)n2)cc1 [IQT]
IC50 (MRC-5 (Normal lung)): 14 ± 2 µM
IC50 values in A2780 cell lines, in words (A2780 (Ovary)): sub-micromolar
IC50 (A2780 (Ovary)): 0.5 ± 0.1 µM

Oc1ccccc1-n1nc(-c2ccccc2)n[n+]1-c1ccccc1.[Br-] [3b]
Ered vs. NHE (peak potential Ep) [1]: −328 mV
Antiproliferative activity / toxicity in the cell panel, in words [2]: low cytotoxicity
IC50 (MRC-5 (Normal lung)): > 100 µM
IC50 (A549 (Lung)): > 100 µM
IC50 (A2780 (Ovary)): > 100 µM
IC50 (Caco-2 (Colon)): > 100 µM
IC50 (MDA-MB-231 (Breast)): > 100 µM

c1ccc(NN=C(N=Nc2cnc3ccccc3n2)c2ccccc2)cc1 [QXF]
Antiproliferative activity / toxicity in the cell panel, in words [2]: sub-micromolar or low-micromolar
IC50 (MRC-5 (Normal lung)): 11 ± 2 µM
IC50 (A2780 (Ovary)): 9 ± 2 µM
IC50 (MDA-MB-231 (Breast)): 22 ± 3 µM

[Br-].c1ccc(-c2nn(-c3nc4ccccc4s3)[n+](-c3ccccc3)n2)cc1 [1b]
Ered vs. NHE (peak potential Ep) [1]: 207 mV
Antiproliferative activity / toxicity in the cell panel, in words [2]: moderate antiproliferative activities
IC50 (MRC-5 (Normal lung)): 97 ± 10 µM
IC50 (A549 (Lung)): 41 ± 3 µM
IC50 (A2780 (Ovary)): 23 ± 3 µM
IC50 (Caco-2 (Colon)): 40 ± 3 µM
Stability in serum [3]: significant degradation
IC50 (MDA-MB-231 (Breast)): 21 ± 2 µM

c1ccc(-c2nn(-c3cnc4ccccc4n3)[n+](-c3ccccc3)n2)cc1 [QXT]
IC50 (MRC-5 (Normal lung)): 45 ± 8 µM
IC50 (A2780 (Ovary)): 19 ± 2 µM
IC50 (MDA-MB-231 (Breast)): 26 ± 3 µM

c1ccc(NN=C(N=Nc2ncc3ccccc3n2)c2ccccc2)cc1 [QZF]
Antiproliferative activity / toxicity in the cell panel, in words [2]: sub-micromolar or low-micromolar
IC50 (MRC-5 (Normal lung)): 4.2 ± 0.3 µM
IC50 (A2780 (Ovary)): 0.6 ± 0.1 µM
IC50 (MDA-MB-231 (Breast)): 1.8 ± 0.5 µM

c1ccc(NN=C(N=Nc2nccc3ccccc23)c2ccccc2)cc1 [IQF]
Antiproliferative activity / toxicity in the cell panel, in words [2]: sub-micromolar or low-micromolar
IC50 (A2780 (Ovary)): 0.7 ± 0.1 µM
IC50 (MDA-MB-231 (Breast)): 1.4 ± 0.5 µM

Oc1ccccc1C(N=Nc1ccccc1)=NNc1ccccc1 [7a]
Iron binding [4]: did not show any indication of iron binding

Cc1nc(-[n+]2nc(-c3ccccc3)nn2-c2ccccc2)sc1C.[Br-] [MTT, reference compound]
Ered vs. NHE (peak potential Ep) [1]: 94 mV
Antiproliferative activity / toxicity in the cell panel, in words [2]: moderate antiproliferative activities
IC50 (MRC-5 (Normal lung)): 32 ± 5 µM
IC50 (A549 (Lung)): 44 ± 9 µM
IC50 (A2780 (Ovary)): 45 ± 9 µM
IC50 (Caco-2 (Colon)): 92 ± 7 µM
Stability in serum [3]: significant degradation
IC50 (MDA-MB-231 (Breast)): 48 ± 7 µM

Cc1nc(N=NC(=NNc2ccccc2)c2ccccc2)sc1C [MTF, reference compound]
Iron binding [4]: coordinate Fe(II)

Oc1ccccc1-c1nn(-c2ccccn2)[n+](-c2ccccc2)n1.[Br-] [4b]
Ered vs. NHE (peak potential Ep) [1]: −102 mV
Antiproliferative activity / toxicity in the cell panel, in words [2]: promising antiproliferative activities
IC50 (MRC-5 (Normal lung)): > 100 µM
IC50 (A549 (Lung)): 28 ± 4 µM
IC50 (A2780 (Ovary)): 12 ± 3 µM
IC50 (Caco-2 (Colon)): 29 ± 3 µM
Effect of iron supplementation on cell death [5]: could be rescued by iron supplementation
IC50 (MDA-MB-231 (Breast)): 17 ± 2 µM

Oc1ccccc1-c1nn(-c2ccccc2)[n+](-c2ccccc2)n1.[Br-] [7b]
Ered vs. NHE (peak potential Ep) [1]: −187 mV
Antiproliferative activity / toxicity in the cell panel, in words [2]: low toxicity
IC50 (MRC-5 (Normal lung)): > 100 µM
IC50 (A549 (Lung)): > 100 µM
IC50 (A2780 (Ovary)): 74 ± 7 µM
IC50 (Caco-2 (Colon)): > 100 µM
IC50 (MDA-MB-231 (Breast)): > 100 µM

[Br-].c1ccc(-c2nn(-c3ccc4ccccc4n3)[n+](-c3ccccc3)n2)cc1 [QT]
IC50 (MRC-5 (Normal lung)): 3.5 ± 0.8 µM
IC50 values in A2780 cell lines, in words (A2780 (Ovary)): sub-micromolar
IC50 (A2780 (Ovary)): 0.8 ± 0.1 µM
IC50 (MDA-MB-231 (Breast)): 0.3 ± 0.1 µM

O=C(O)c1ccc(-n2nc(-c3ccccc3O)nc2-c2ccccc2O)cc1 [DFX, deferasirox, reference compound]
IC50 (MRC-5 (Normal lung); Homo sapiens, MRC5): > 100 µM
IC50 (A549 (Lung); Homo sapiens, A549): 21 ± 3 µM
IC50 (A2780 (Ovary); Homo sapiens, A2780): 15 ± 0.5 µM
IC50 (Caco-2 (Colon); Homo sapiens, Caco-2): 67 ± 2 µM
IC50 (MDA-MB-231 (Breast); Homo sapiens, MDA-MB-231): 17 ± 1 µM

[Br-].c1ccc(-n2nc(-c3ccccn3)n[n+]2-c2ccccc2)cc1 [6b]
Ered vs. NHE (peak potential Ep) [1]: −241 mV
Antiproliferative activity / toxicity in the cell panel, in words [2]: low toxicity
IC50 (MRC-5 (Normal lung)): > 100 µM
IC50 (A549 (Lung)): > 100 µM
IC50 (A2780 (Ovary)): 74 ± 4 µM
IC50 (Caco-2 (Colon)): > 100 µM
Effect of iron supplementation on cell death [5]: not altered by iron supplementation
IC50 (MDA-MB-231 (Breast)): > 100 µM

[Br-].c1ccc(-c2nn(-c3ccccn3)[n+](-c3ccccc3)n2)cc1 [2b]
Ered vs. NHE (peak potential Ep) [1]: −130 mV
Antiproliferative activity / toxicity in the cell panel, in words [2]: promising antiproliferative activities
IC50 (MRC-5 (Normal lung)): > 100 µM
IC50 (A549 (Lung)): 17 ± 2 µM
IC50 (A2780 (Ovary)): 16 ± 3 µM
IC50 (Caco-2 (Colon)): 13 ± 2 µM
Effect of iron supplementation on cell death [5]: could be rescued by iron supplementation
IC50 (MDA-MB-231 (Breast)): 16 ± 2 µM

c1ccc(NN=C(N=Nc2ccc3ccccc3n2)c2ccccc2)cc1 [QF]
Antiproliferative activity / toxicity in the cell panel, in words [2]: sub-micromolar or low-micromolar
IC50 (MRC-5 (Normal lung)): 89 ± 9 µM
IC50 (A2780 (Ovary)): 14 ± 2 µM
IC50 (MDA-MB-231 (Breast)): 7 ± 2 µM

c1ccc(N=NC(=NNc2ccccc2)c2ccccn2)cc1 [6a]
Iron binding [4]: did not show any indication of iron binding

Oc1ccccc1-n1nc(-c2ccccn2)n[n+]1-c1ccccc1.[Br-] [5b]
Ered vs. NHE (peak potential Ep) [1]: −380 mV
Antiproliferative activity / toxicity in the cell panel, in words [2]: low cytotoxicity
IC50 (MRC-5 (Normal lung)): > 100 µM
IC50 (A549 (Lung)): > 100 µM
IC50 (A2780 (Ovary)): 90 ± 10 µM
IC50 (Caco-2 (Colon)): > 100 µM
IC50 (MDA-MB-231 (Breast)): > 100 µM
